Test results reported in US8501734B2, “Medical intervention in haematological cancers” (Oncotyrol-Center for Personalized Cancer Medicine GmbH …, priority 2008, dated 2013).

Legend:
TLR7 pathway = assay: TLR pathway activation: IRAK1 and IκB degradation by Western blot in OPM2 cells; assay type: cell-based; conditions: OPM2 cells, 10, 20 or 40 μg/ml over night
Protocol: Cells were lysed in lysis-IP-Buffer supplemented with protease inhibitors and sodium orthovanadate. 10 μg of lysate were separated by SDS-PAGE (10% polyacrylamide) and transferred to methanol activated Hypond-P PVDF-membranes (Amersham, Freiburg, Germany) by semi-dry blotting. Membranes were blocked in a 3% bovine serum albumin solution or 5% non fat dry milk solution in phosphate buffered saline (PBS) with 0.1% Tween 20 (PBT). Primary antibodies were applied in blocking solution for 1 h at room temperature or over night at 4° C. Membranes were washed in PBT and incubated with corresponding secondary antibodies in 5% non fat dry milk in PBT for 1 h at room temperature. Cells were washed with PBT, incubated with ECL solution and exposed in a Fluorchem 5500 (Biozym, Oldendorf, Germany).
OPM2 cells were suspended in full medium and cultured in 24-well plates at a cell density of 500.000 cells/ml and well. Cells were left untreated (control) or treated over night with different concentrations of Imiquimod® (10, 20 or 40 μg/ml).
OPM2 cells were cultured in 24-well plates as described above. Imiquimod® (40 μg/ml) was added to cells (except controls) for different time periods (2, 4, 6 and 8 h) and the extent of PARP1 cleavage, IRAK1, IkB-α and IkB-β degradation were determined by Western blot. α-Tubulin was used as a loading control.

NCI cells = assay: Annexin V/PI apoptosis assay, NCI cells; assay type: cell-based; conditions: 40 μg/ml, 24 h
Protocol: (§1) After treatment adherent cells were trypsinized (as described before), and resuspended in corresponding full medium. Suspension cells or trypsinized adherent cells, supernatant and washing solution (1×PBS from washing before trypsinization) were pooled and then spun down (300 g for 3 min) washed in 2 ml and resuspended in 1000 of annexin V binding buffer and mixed with 2 μg/ml annexin V-Allophycocyanin (APC) (BD-Pharmingen, San Diego, Calif., USA) and 50 ng/ml of propidium iodide (PI; Sigma Aldrich). At least 10.000 cells were measured per sample using a Becton Dickinson FACSCalibur flow Cytometer (San Jose, Calif., USA). Percentage of Annexin V negative and PI negative cells were depicted in the figures. […] Briefly, BMMCs were stained with a mixture of annexin V/FITC (Alexis Coorp., Laeufelfingen, Switzerland), propidium iodide (Sigma), anti-CD38-PE and anti-CD45-PC5 for 15 min at room temperature and immediately analyzed by flow cytometry. The percentages of viable cells (i.e. cells negative for annexin V/FITC and PI) within the MM (CD38^posCD45^low/absent) and non-MM fraction (CD38^neg/CD45^pos) were determined by flow cytometry.
(§2) Adherent cells were grown in 24-well plates to confluence and treated with 40 μg/ml Imiquimod® for 24 h. Cells were then trypsinized, suspended in full medium, stained for AnnexinV/PI and apoptosis was measured as described before. […]

[1] = system: MDA468, CHO, ONK2, MCF7, HeLa, Raji, Daudi, Ramos, C7H2 and Jurkat; adherent cell lines; assay: Annexin V/PI apoptosis assay, non-MM and adherent cell lines; assay type: cell-based
Protocol: as §1, §2

[2] = system: peripheral blood mononuclear cells (PBMCs); assay: Annexin V/PI apoptosis assay, PBMCs from healthy donors; assay type: cell-based, human; conditions: 40 μg/ml, 24 h
Protocol: PBMCs were prepared using separation via Ficoll density gradient centrifugation (Biochrom AG, Berlin, Germany) according to the protocol of the manufacturer.
(§3) After treatment adherent cells were trypsinized (as described before), and resuspended in corresponding full medium. Suspension cells or trypsinized adherent cells, supernatant and washing solution (1×PBS from washing before trypsinization) were pooled and then spun down (300 g for 3 min) washed in 2 ml and resuspended in 1000 of annexin V binding buffer and mixed with 2 μg/ml annexin V-Allophycocyanin (APC) (BD-Pharmingen, San Diego, Calif., USA) and 50 ng/ml of propidium iodide (PI; Sigma Aldrich). At least 10.000 cells were measured per sample using a Becton Dickinson FACSCalibur flow Cytometer (San Jose, Calif., USA). Percentage of Annexin V negative and PI negative cells were depicted in the figures. For the analysis of the pro-apoptotic activity of Imiquimod® in primary MM cells and non-malignant BMMCs, 5×10^5 cells BMMCs cells were treated with or without 40 μg/ml Imiquimod® for the indicated time periods. Cells were then harvested and washed twice with PBS. Detection of apoptotic cells was performed using the annexin V/PI assay according to manufacturers' instruction. Briefly, BMMCs were stained with a mixture of annexin V/FITC (Alexis Coorp., Laeufelfingen, Switzerland), propidium iodide (Sigma), anti-CD38-PE and anti-CD45-PC5 for 15 min at room temperature and immediately analyzed by flow cytometry. The percentages of viable cells (i.e. cells negative for annexin V/FITC and PI) within the MM (CD38^posCD45^low/absent) and non-MM fraction (CD38^neg/CD45^pos) were determined by flow cytometry.
(§4) Adherent cells were grown in 24-well plates to confluence and treated with 40 μg/ml Imiquimod® for 24 h. Cells were then trypsinized, suspended in full medium, stained for AnnexinV/PI and apoptosis was measured as described before. Suspension cells (250.000) were treated with 40 μg/ml Imiquimod® for 24 h, stained for Annexin/PI and apoptosis was measured as described above (Annexin V/Propidium Iodide apoptosis Assay).

[3] = system: non-tumor cells (CD38negCD45high); assay: Annexin V/PI apoptosis assay, non-tumor fraction of patient BMMCs; assay type: cell-based, human; conditions: CD45high non-tumor cells, 40 μg/ml, 8 h or 24 h
Protocol: For collection of primary multiple myeloma cells, bone marrow aspirates from iliac crests were collected during routine examinations after obtaining informed patient consent. Bone marrow mononuclear cells (BMMCs) were separated by density centrifugation. Fresh blood samples were diluted 1:1 with RPMI 1640 medium and layered over Biocoll separating solution (1.077 g/ml, Biochrom AG, Berlin; blood/RPMI1640/Biocoll; 1:1:1, v/v/v). Centrifugation was carried out for 20 min at 400 g. […] The percentage of multiple myeloma cells within the BMMCs was determined by flow cytometry. Briefly, 2×10^5 cells were stained for 15 min with fluorochrome-labelled antibodies to CD38 (phycoerythrin, PE) and CD45 (phycoerythrin-cyanin 5, PC5) (both from Beckman Coulter Inc., Fullerton, Calif., USA), washed with PBS and were immediately analyzed using the FC500 flow cytometer and the RXP1.0 software (Beckman Coulter). MM cells were detected by their high expression of CD38 and weak to absent expression of CD45.
After treatment adherent cells were trypsinized (as described before), and resuspended in corresponding full medium. […] At least 10.000 cells were measured per sample using a Becton Dickinson FACSCalibur flow Cytometer (San Jose, Calif., USA). […]

OPM-2 cells xenograft = assay type: in vivo, NIH III-nude mice
Protocol: Average tumor diameter and mouse body weight was measured every 3rd day.
Treatment was started when tumors reached an average diameter of 0.8 cm and mice were sacrificed when the tumor reached an average diameter of 1.5 cm. A maximum volume of 150 μl of Imiquimod®, in a concentration of 2.5 mg/ml in H2O, was injected subcutaneously into the left flank of the mice. The same amount of H2O was injected in the same way into control mice. Tumor volume was calculated with the formula 4π/3×(width/2)2×(length/2).

[4] = system: multiple myeloma cell lines; assay: Annexin V/PI apoptosis assay, multiple myeloma cell line panel; assay type: cell-based; conditions: 24 h
Protocol: as §3, §4

[5] = system: squamous cell carcinoma cells; conditions: 50 μg/ml, 24 h; cited from earlier work
melanoma cells = conditions: 50 μg/ml, 24 h; cited from earlier work

SMILES: CC(C)Cn1cnc2c(N)nc3ccccc3c21 [Imiquimod, 1-(2-methylpropyl)-1H-imidazo[4,5-c]quinolin-4-amine]
- IRAK1 degradation (TLR7 pathway): degraded in a concentration-dependent manner
- IκB-α degradation (TLR7 pathway): degraded in a concentration dependent manner
- apoptotic cells (NCI cells): 90%
- sensitivity to Imiquimod ([1]; MDA468, CHO, ONK2, MCF7, HeLa, Raji, Daudi, Ramos, C7H2 and Jurkat): no sensitivity
- sensitivity (apoptosis) ([1]; set of adherent cell lines, 40 μg/ml, 24 h): no significant or only minimal sensitivity
- sensitivity (apoptosis) ([2]; CD4+ and CD8+ cells from 12 healthy donors): nearly no sensitivity
- sensitivity (apoptosis) ([2]; CD19+ cells from 12 healthy donors): only mildly affected
- apoptosis induction [3]: induction of apoptosis
- changes in tumor volume (OPM-2 cells xenograft; 10 mg/kg s.c. twice daily): ranging from tumor regression and stagnation, via slower growth to increase in tumor volume comparable to controls
- histological analysis of tumors (haematoxylin and eosin) (OPM-2 cells xenograft; 10 mg/kg s.c. twice daily): regions of massive tissue destruction
- tumor regression (OPM-2 cells xenograft; 10 mg/kg s.c. twice daily): 5 cases
- weight development, treated versus control mice (OPM-2 cells xenograft; 10 mg/kg s.c. twice daily): no difference
- survival of treated mice (OPM-2 cells xenograft; 10 mg/kg s.c. twice daily vs H2O, p=0.027, t-test): significantly increased
- side effects (OPM-2 cells xenograft; 10 mg/kg s.c. twice daily, besides scars at the injection site): no obvious side effects could be observed
- apoptosis induction, single agent ([4]; OPM2, LP-1, RPMI, U266, Imiquimod 20 μg/ml or Akti1/2 5 or 10 μM alone): some apoptosis
- sensitivity (apoptosis) ([4]; OPM2, U266, LP1, NCI, 40 μg/ml): sensitive
- apoptotic cells [5]: 17.3%
- apoptotic cells (melanoma cells): 15.8%
